Test [1] relates to cells of the mammary carcinoma cell line MCF-7. Description: Tumor cell growth inhibition, SRB-assay, MCF-7. To be noted: 50% growth inhibition, three days incubation in serum-containing medium. It is filed as cell-based.
Test [2] has as its system cells of the large-cell lung carcinoma of the tumor line LXFL-529L. Description: Tumor cell growth inhibition, SRB-assay, LXFL-529L. The format is cell-based. To be noted: 50% growth inhibition, three days incubation in serum-containing medium. On the technique in general: In SRB staining, fixed cells bind dye roughly in proportion to their protein.

Here are results for 39 compounds from patent US6987092B1, “Indigoid bisindole derivatives” (Faustus Forschungs Cie. Translational Cancer Research GmbH, priority 1999, dated 2006).

Counter-ions that a name gives are not always drawn.

A word on the IC50: it is the concentration that gives 50% inhibition. Read a high IC50 as a need for much substance. Consider “3-[3′-[iminooxy-O-(2-D-glucopyranosylethyl)]-(2H′3H′)indol-2′-ylidene]-5-methyl-(2H3H)indol-2-one [Example 68]”, for which the figures for the 50% inhibitory concentration (IC50) in test [1] and in test [2] were 2.5 ± 0.8 µM and 17 ± 0.8 µM, respectively.
Taken in the same sequence, the figures for “3-[3′-[iminooxy-O-(N-(1-deoxy-glucitol)-2-amino-ethyl)]-(2H′3H′)indol-2′-ylidene]-5-methyl-(2H3H)indol-2-one [Example 69]” were 2.5 ± 0.9 µM and 3.5 ± 0.7 µM.
Turning to “3-{3′-[iminooxy-O-(2-(2-amino-2-deoxy-D-galactopyranosyl)-ethyl)]-(2′H3′H)indol-2′-ylidene}(2H3H)indol-2-one [Example 54]”, the results for the IC50 in test [1] and in test [2] were 9 ± 0.9 µM and 16 ± 1.1 µM, respectively.
Taken in the same sequence, the figures for “3-{3′-[iminooxy-O-(2-(2-amino-2-deoxy-D-glucopyranosyl)-ethyl)]-(2′H3′H)indol-2′-ylidene}-(2H3H)indol-2-one [Example 53]” were 7 ± 0.7 µM and 15 ± 0.9 µM.
Taken in the same sequence, the figures for “3-{3′-[iminooxy-O-(2-(2-amino-ethyl)-amino-ethyl)]-(2′H3′H)indol-2′-ylidene}-(2H3H)indol-2-one [Example 66]” were 8 ± 1.2 µM and 7 ± 0.6 µM.
With “3-{3′-[iminooxy-O-(2-D-galactopyranosylethyl)]-(2′H3′H)indol-2′-ylidene}-(2H3H)indol-2-one [Example 47]”, the 50% inhibitory concentration (IC50) in test [1] stood at 9.5 ± 0.9 µM; in test [2], 17 ± 1.2 µM.
In the same order, the values of “3-{3′-[iminooxy-O-(2-L-arabinopyranosylethyl)]-(2′H3′H)indol-2′-ylidene}-(2H3H)indol-2-one [Example 49]” are 5 ± 0.7 µM and 20.5 ± 1.4 µM.
In the same order, the values of “3-{3′-[iminooxy-O-(3-D-glucopyranosylpropyl)]-(2′H3′H)indol-2′-ylidene}-(2H3H)indol-2-one [Example 45]” are 10.5 ± 0.6 µM and 19 ± 0.9 µM.
Taken in the same sequence, the figures for “3-{3′-[iminooxy-O-((N,N)-bis(hydroxyethyl)-4-amino-butyl)]-(2H3H)indol-2′-ylidene}-(2H3H)indol-2-one [Example 61]” were 12.4 ± 0.7 µM and 8 ± 0.3 µM.
As for “3-{3′-[iminooxy-O-(O^4-α-D-glucopyranosyl-2-D-glucopyranosylethyl)]-(2′H3′H)indol-2′-ylidene}-(2H3H)indol-2-one [Example 46]”, the concentration for half-maximal inhibition (IC50) worked out at 7 ± 0.9 µM in test [1] and 24 ± 1.3 µM in test [2].
In the same order, the values of `CC(C)c1ccc2c(c1)/C(=C1/Nc3ccccc3C1=O)C(=O)N2` [Example 3, 5-isopropyl-indirubin] are 0.5 ± 0.2 µM and 4 ± 0.2 µM.
For the compound `CCCc1ccc2c(c1)C(=C1Nc3ccccc3C1=O)C(=O)N2` [Example 4, 5-n-propyl-indirubin], the results for the IC50 in test [1] and in test [2] were 6.5 ± 0.5 µM and 7 ± 0.4 µM, respectively.
As to `O=C(O)Cc1ccc2c(c1)C(=C1Nc3ccccc3C1=O)C(=O)N2` [Example 5, 5-(carboxymethyl)-indirubin], the half-inhibitory concentration (IC50) in test [1] was 19.5 ± 1.4 µM.
Consider `O=C1Nc2ccc(CC(=O)N3CCNCC3)cc2C1=C1Nc2ccccc2C1=O` [Example 6, 5-[2-(piperazin-1-yl)-ethan-2-one-1-yl]-indirubin], for which the results for the IC50 in test [1] and in test [2] were 8 ± 0.9 µM and 4 ± 0.5 µM, respectively.
Taken in the same sequence, the figures for `O=C1Nc2ccc(CC(=O)N3CCOCC3)cc2C1=C1Nc2ccccc2C1=O` [Example 7, 5-[2-(morpholin-4-yl)-ethan-2-one-1-yl]-indirubin] were 7.5 ± 0.6 µM and 5.5 ± 0.7 µM.
In the same order, the values of `NCCNC(=O)Cc1ccc2c(c1)C(=C1Nc3ccccc3C1=O)C(=O)N2` [Example 8, N-(2-amino-ethyl)-2-[3-(3′-oxo-(2′H3′H)indol-2′-ylidene)-(2H3H)indol-2-one-5-yl]-acetamide] are 4 ± 0.6 µM and 3.5 ± 0.7 µM.
Taken in the same sequence, the figures for `CNC(=O)Cc1ccc2c(c1)C(=C1Nc3ccccc3C1=O)C(=O)N2` [Example 9, N-methyl-2-[3-(3′-oxo-(2′H3′H)indol-2′-ylidene)-(2H3H)indol-2-one-5-yl]-acetamide] were 17 ± 1 µM and 11.5 ± 0.6 µM.
`CN(C)C(=O)Cc1ccc2c(c1)C(=C1Nc3ccccc3C1=O)C(=O)N2` [Example 10, N,N-dimethyl-2-[3-(3′-oxo-(2′H3′H)indol-2′-ylidene)-(2H3H)indol-2-one-5-yl]-acetamide]: the 50% inhibitory concentration (IC50) in test [1] was determined as 20 ± 1.3 µM; in test [2], 16 ± 0.9 µM.
In the same order, the values of `COC(=O)CNC(=O)Cc1ccc2c(c1)C(=C1Nc3ccccc3C1=O)C(=O)N2` [Example 12, methyl-2-{2-[3-(3′-oxo-(2′H3′H)indol-2′-ylidene)-(2H3H)indol-2-one-5-yl]-acetylamino}-acetate] are 6.5 ± 1.2 µM and 8 ± 0.8 µM.
Regarding `O=C1Nc2ccc(CP(=O)(O)O)cc2C1=C1Nc2ccccc2C1=O` [Example 13, [3-(3′-oxo-(2′H3′H)indol-2′-ylidene)-(2H3H)indol-2-one-5-yl]-methyl-phosphonic Acid], the half-inhibitory concentration (IC50) in test [1] came to 6.5 ± 1 µM; in test [2] it was 8.5 ± 0.8 µM.
Taken in the same sequence, the figures for `CCOP(=O)(Cc1ccc2c(c1)C(=C1Nc3ccccc3C1=O)C(=O)N2)OCC` [Example 14, diethyl-{[3-(3′-oxo-(2′H3′H)indol-2′-ylidene)-(2H3H)indol-2-one-5-yl]-methyl}-phosphonate] were 6 ± 1.1 µM and 6.5 ± 1.2 µM.
As to `CC(=O)Nc1ccc2c(c1)C(=C1Nc3ccccc3C1=O)C(=O)N2` [Example 16, 5-acetylamino-indirubin], the half-inhibitory concentration (IC50) in test [2] is 10 ± 0.8 µM.
`O=C(O)CCC(=O)Nc1ccc2c(c1)C(=C1Nc3ccccc3C1=O)C(=O)N2` [Example 17, [3-(3′-oxo-(2′H3′H)indol-2′-ylidene)-(2H3H)indol-2-one-5-yl]-succinamic acid]: the figures for the IC50 in test [1] and in test [2] were 14 ± 0.9 µM and 12.5 ± 0.7 µM, respectively.
Taken in the same sequence, the figures for `NCC(=O)Nc1ccc2c(c1)C(=C1Nc3ccccc3C1=O)C(=O)N2` [Example 18, 2-amino-N-[3-(3′-oxo-(2′H3′H)indol-2′-ylidene)-(2H3H)indol-2-one-5-yl]-acetamide] were 3 ± 0.3 µM and 4 ± 0.4 µM.
In the same order, the values of `CC(N)C(=O)Nc1ccc2c(c1)C(=C1Nc3ccccc3C1=O)C(=O)N2` (stereo not shown) [Example 19, 2-amino-N-[3-(3′-oxo-(2′H3′H)indol-2′-ylidene)-(2H3H)indol-2-one-5-yl]-propionamide] are 5 ± 0.6 µM and 7 ± 0.7 µM.
As for `NCCNc1ccc2c(c1)C(=C1Nc3ccccc3C1=O)C(=O)N2` [Example 20, 5-(2-amino-ethyl)-amino-indirubin], the IC50 in test [1] is 3.5 ± 0.4 µM; in test [2], 4 ± 0.3 µM.
Taken in the same sequence, the figures for `O=C1Nc2ccc(NCCO)cc2C1=C1Nc2ccccc2C1=O` [Example 21, 5-(2-hydroxy-ethyl)-amino-indirubin] were 5 ± 0.6 µM and 3 ± 0.5 µM.
For the compound `O=C1Nc2ccc(S(=O)(=O)N3CCNCC3)cc2C1=C1Nc2ccccc2C1=O` [Example 22, indirubin-5-sulfonic acid-(piperazin-1-yl-amide)], the figures for the 50% inhibitory concentration (IC50) in test [1] and in test [2] were 2 ± 0.3 µM and 3 ± 0.5 µM, respectively.
Taken in the same sequence, the figures for `COC(=O)CNS(=O)(=O)c1ccc2c(c1)C(=C1Nc3ccccc3C1=O)C(=O)N2` [Example 24, methyl-2-{[3-(3′-oxo-(2′H3′H)indol-2′-ylidene)-(2H3H)indol-2-one-5-yl]-sulfonylamino}-acetate] were 25 ± 0.9 µM and 16 ± 0.8 µM.
Taken in the same sequence, the figures for `CC(C)c1ccc2c(c1)C(=C1Nc3ccccc3C1=NO)C(=O)N2` [Example 27, 5-isopropyl-indirubin-3′-monooxime] were 5 ± 0.9 µM and 5.5 ± 0.6 µM.
In the same order, the values of `CC(=O)Nc1ccc2c(c1)C(=C1Nc3ccccc3C1=NO)C(=O)N2` [Example 29, 5-acetylamino-indirubin-3′-monooxime] are 5 ± 0.5 µM and 4 ± 0.9 µM.
For `NCC(=O)Nc1ccc2c(c1)C(=C1Nc3ccccc3C1=NO)C(=O)N2` [Example 30, 2-amino-N-[3-(3′-hydroxyimino-(2H3H)indol-2′-ylidene)-(2H3H)-indol-2-one-5-yl]-acetamide], the concentration for half-maximal inhibition (IC50) in test [1] turned out to be 6 ± 0.7 µM; in test [2] it was 6 ± 0.8 µM.
Taken in the same sequence, the figures for `O=C1Nc2ccccc2C1=C1Nc2ccccc2C1=NOCCOCCO` [Example 33, 3-{3′-[iminooxy-O-(2-(2-hydroxy-ethoxy)-ethyl)]-(2′H3′H)indol-2′-ylidene}-(2H3H)indol-2-one] were 2.5 ± 0.5 µM and 2 ± 0.4 µM.
In the same order, the values of `CC(C)(O)CON=C1C(=C2C(=O)Nc3ccccc32)Nc2ccccc21` [Example 34, 3-{3′-[iminooxy-O-((2-hydroxy-2-methyl)-propyl)]-(2′H3′H)indol-2′-ylidene}-(2H3H)indol-2-one] are 2 ± 0.3 µM and 2 ± 0.5 µM.
`O=C(O)CCON=C1C(=C2C(=O)Nc3ccccc32)Nc2ccccc21` [Example 36, 3-{O-[2′-(2-oxo-(2H3H)indol-3-ylidene)-(2′H3′H)indol-3′-ylidene]-aminooxy}-propionic Acid (Sodium Salt)] registered a half-inhibitory concentration (IC50) in test [1] of 16 ± 0.7 µM.
Take `O=C(O)CCCON=C1C(=C2C(=O)Nc3ccccc32)Nc2ccccc21` [Example 37, 4-{O-[2′-(2-oxo-(2H3H)indol-3-ylidene)-(2′H3′H)indol-3′-ylidene]-aminooxy}-butyric Acid (Sodium Salt)]: the IC50 in test [1] came out at 14 ± 1.1 µM; in test [2] it was 12 ± 1 µM.
In the same order, the values of `O=C(O)CCCCON=C1C(=C2C(=O)Nc3ccccc32)Nc2ccccc21` [Example 38, 5{O-[2′-(2-oxo-(2H3H)indol-3-ylidene)-(2′H3′H)indol-3′-ylidene]-aminooxy}-pentanoic Acid (Sodium Salt)] are 14 ± 0.7 µM and 14 ± 0.8 µM.
In test [2], `O=C1Nc2ccccc2C1=C1Nc2ccccc2C1=NOCCN[C@H]1C(O)O[C@H](CO)[C@H](O)[C@@H]1O` (stereo partly shown) [Example 57, 3-{3′-[iminooxy-O-(N-(2-deoxy-galactose)-2-amino-ethyl)]-(2′H3′H)indol-2′-ylidene}-(2H3H)indol-2-one] returned an IC50 of 23 ± 1.4 µM.
Turning to `CN1CCN(CCON=C2C(=C3C(=O)Nc4ccccc43)Nc3ccccc32)CC1` [Example 65, 3-{3′-[iminooxy-O-(2-(4-methyl-piperazin-1-yl)-ethyl)]-(2′H3′H)indol-2′-ylidene}-(2H3H)indol-2-one], in test [1], half-maximal inhibition (IC50) was put at 7.5 ± 0.8 µM.
